The test system of data set [1] is Salmonella typhimurium. Briefly: Antibacterial activity against Salmonella Typhimurium. The format is functional, Salmonella enterica subsp. enterica serovar Typhimurium. Conditions: Salmonella enterica.
Data set [2] concerns Staphylococcus aureus. Briefly: Antibacterial activity against Staphylococcus aureus SG 511. The class given is functional.
Data set [3] has as its system Streptococcus pyogenes. Briefly: Antibacterial activity against Streptococcus pyogenes 308A. The class given is functional.
The subject of data set [4] is Staphylococcus aureus. Description: Antibacterial activity against Staphylococcus aureus 503. The class given is functional.
In data set [5] the test system is Escherichia coli. Description: Antibacterial activity against Escherichia coli 078. The format is functional.
The subject of data set [6] is Escherichia coli. Description: Antibacterial activity against Escherichia coli 1507E. The class given is functional.
Data set [7] relates to Enterobacter cloacae. Briefly: Antibacterial activity against Enterobacter cloacae 1321E. The class given is functional.
The nature of data set [8]: Stability to porcine renal DHP-I. The format is ADME, Sus scrofa. Conditions: pig.
The subject of data set [9] is Klebsiella aerogenes. Briefly: Antibacterial activity against Klebsiella aerogenes 1522E. The format is functional.
Data set [10] relates to Pseudomonas aeruginosa. Description: Antibacterial activity against Pseudomonas aeruginosa 1592E. The class given is functional.
In data set [11] the test system is Pseudomonas aeruginosa. Description: Antibacterial activity against Pseudomonas aeruginosa 1771M. The class given is functional.
Data set [12] concerns Staphylococcus aureus. Briefly: Antibacterial activity against Staphylococcus aureus 285. The class given is functional.
Data set [13] deals with Pseudomonas aeruginosa. Briefly: Antibacterial activity against Pseudomonas aeruginosa 9027. The format is functional.
In data set [14] the test system is Mus musculus. Description: In vivo therapeutic efficacy in systemic infections caused by Escherichia coli 078 in mice, at a single subcutaneous administration. The format is functional. Conditions: sc, read-out: PD50.
The test system of data set [15] is Mus musculus. Description: In vivo therapeutic efficacy in systemic infections caused by Pseudomonas aeruginosa 1771M in mice, at a single subcutaneous administration. The class given is functional. Conditions: sc, read-out: PD50.
For data set [16], the system named is Mus musculus. Description: In vivo therapeutic efficacy in systemic infections caused by Staphylococcus aureus Y-80-1953 in mice, at a single subcutaneous administration. The following applies: sc, read-out: PD50. The class given is functional.
In data set [17] the test system is Mus musculus. Description: In vivo therapeutic efficacy in systemic infections caused by Streptococcus pyogenes 77A in mice, at a single subcutaneous administration. The class given is functional. Conditions: sc, read-out: PD50.

The term MIC denotes the lowest concentration found to suppress growth.

Structures are written as SMILES. ≈ marks a conversion by molar mass, not a printed value.

For `C[C@@H](O)[C@H]1C(=O)N2C(C(=O)O)=C(S[C@@H]3CN[C@H](/C=C/c4ccno4)C3)[C@H](C)[C@H]12`, the MIC turned out to be 0.049 µg/mL (≈ 0.121 µM) in data set [1]; 0.025 µg/mL (≈ 0.0617 µM) in [2]; 0.004 µg/mL (≈ 0.00986 µM) in data set [3]; 0.013 µg/mL (≈ 0.0321 µM) in data set [4]; 0.025 µg/mL (≈ 0.0617 µM) in [5]; 0.025 µg/mL (≈ 0.0617 µM) in [6]. Besides, the MIC in [7] amounted to 0.025 µg/mL (≈ 0.0617 µM); in data set [9], 0.049 µg/mL (≈ 0.121 µM); in [10] it was 0.195 µg/mL (≈ 0.481 µM); in data set [11], 0.098 µg/mL (≈ 0.242 µM); in data set [12], 0.049 µg/mL (≈ 0.121 µM); in [13], 0.195 µg/mL (≈ 0.481 µM). In addition, the “Relative t1/2” value in data set [8] turned out to be 1.95.

With `C[C@@H](O)[C@H]1C(=O)N2C(C(=O)O)=C(S[C@@H]3CN[C@H](C(=O)N(C)C)C3)[C@H](C)[C@H]12` [MEROPENEM], the ED50 is 1.11 mg/kg in [14], 5.43 mg/kg in data set [15], 4.49 mg/kg in data set [16] and 4.72 mg/kg in [17]. Also, the MIC in [1] turned out to be 0.049 µg/mL (≈ 0.128 µM); in data set [2] it was 0.195 µg/mL (≈ 0.509 µM); in data set [3], 0.013 µg/mL (≈ 0.0339 µM); in [4], 0.098 µg/mL (≈ 0.256 µM); in [5] it was 0.025 µg/mL (≈ 0.0652 µM); in data set [6], 0.025 µg/mL (≈ 0.0652 µM). Besides, the MIC in [7] is 0.025 µg/mL (≈ 0.0652 µM); in data set [9] it was 0.049 µg/mL (≈ 0.128 µM); in data set [10], 0.195 µg/mL (≈ 0.509 µM); in [11] it was 0.049 µg/mL (≈ 0.128 µM); in data set [12], 0.195 µg/mL (≈ 0.509 µM); in data set [13] it was 0.195 µg/mL (≈ 0.509 µM). The “Relative t1/2” value in data set [8] was determined as 1.

Take `C[C@@H](O)[C@H]1C(=O)N2C(C(=O)O)=C(S[C@@H]3CN[C@H](/C=C/c4ccsn4)C3)[C@H](C)[C@H]12`: the MIC amounted to 0.049 µg/mL (≈ 0.116 µM) in data set [1]; 0.025 µg/mL (≈ 0.0593 µM) in data set [2]; 0.007 µg/mL (≈ 0.0166 µM) in [3]; 0.013 µg/mL (≈ 0.0308 µM) in data set [4]; 0.049 µg/mL (≈ 0.116 µM) in data set [5]; 0.049 µg/mL (≈ 0.116 µM) in data set [6]. In addition, the MIC in data set [7] amounted to 0.025 µg/mL (≈ 0.0593 µM); in [9], 0.098 µg/mL (≈ 0.232 µM); in [10] it was 1.56 µg/mL (≈ 3.71 µM); in [11], 0.391 µg/mL (≈ 0.928 µM); in [12] it was 0.025 µg/mL (≈ 0.0593 µM); in [13], 1.56 µg/mL (≈ 3.71 µM). Also, in [8], the “Relative t1/2” value was determined as 1.42.

Consider `C[C@@H](O)[C@H]1C(=O)N2C(C(=O)O)=C(S[C@@H]3CN[C@H](/C=C/c4ccns4)C3)[C@H](C)[C@H]12`, for which the ED50 in [14] came out at 0.32 mg/kg; in data set [15], 6.17 mg/kg; in [16], 1.27 mg/kg; in data set [17] it was 0.32 mg/kg. Moreover, the MIC in data set [1] turned out to be 0.049 µg/mL (≈ 0.116 µM); in data set [2], 0.013 µg/mL (≈ 0.0308 µM); in data set [3], 0.004 µg/mL (≈ 0.00949 µM); in [4] it was 0.013 µg/mL (≈ 0.0308 µM); in [5], 0.025 µg/mL (≈ 0.0593 µM); in [6], 0.025 µg/mL (≈ 0.0593 µM). The MIC in data set [7] was found to be 0.049 µg/mL (≈ 0.116 µM); in data set [9], 0.049 µg/mL (≈ 0.116 µM); in data set [10], 0.391 µg/mL (≈ 0.928 µM); in [11], 0.195 µg/mL (≈ 0.463 µM); in data set [12] it was 0.025 µg/mL (≈ 0.0593 µM); in data set [13], 0.391 µg/mL (≈ 0.928 µM). Besides, in data set [8], the “Relative t1/2” value amounted to 3.36.

In the case of `C[C@@H](O)[C@H]1C(=O)N2C(C(=O)O)=C(SCCNC=N)C[C@H]12.O` [IMIPENEM], the MIC in data set [1] was 0.781 µg/mL; in data set [2] it was 0.025 µg/mL; in data set [3] it was 0.007 µg/mL; in data set [4] it was 0.013 µg/mL; in data set [5] it was 0.098 µg/mL; in data set [6], 0.195 µg/mL. Besides, the MIC in [7] came out at 0.195 µg/mL; in data set [9], 0.391 µg/mL; in data set [10], 1.56 µg/mL; in data set [11], 0.195 µg/mL; in [12], 0.025 µg/mL; in [13] it was 0.781 µg/mL. Further, the “Relative t1/2” value in data set [8] was 0.19.
